The molecules below were run against T1, IGF-1R (Homo sapiens, UniProt P08069) (assay: Cellular IGF-1R assay: capture ELISA (MSD) of receptor phosphorylation in Hek293 cells). Details: Hek293-IGF1R cells, 1 h pre-incubation, 10 min IGF stimulation, pIGF1R capture ELISA.
T1 construct: expressed in transfected cells; host or cells: Hek293 (Hek293-IGF1R)
Type: cell-based
Outline: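 IC50 from 4-parameter fit of IGF1R phosphorylation, normalised to IGF-stimulated and unstimulated controls, measured by MSD capture ELISA on lysates. Hek293-IGF1R cells in starvation medium got compound 1 h (top 10 μM, 3-fold steps, 0.1% DMSO) before a 10 min pulse of 1.0 ng/μL IGF.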

T1 sequence (P08069 31-1367): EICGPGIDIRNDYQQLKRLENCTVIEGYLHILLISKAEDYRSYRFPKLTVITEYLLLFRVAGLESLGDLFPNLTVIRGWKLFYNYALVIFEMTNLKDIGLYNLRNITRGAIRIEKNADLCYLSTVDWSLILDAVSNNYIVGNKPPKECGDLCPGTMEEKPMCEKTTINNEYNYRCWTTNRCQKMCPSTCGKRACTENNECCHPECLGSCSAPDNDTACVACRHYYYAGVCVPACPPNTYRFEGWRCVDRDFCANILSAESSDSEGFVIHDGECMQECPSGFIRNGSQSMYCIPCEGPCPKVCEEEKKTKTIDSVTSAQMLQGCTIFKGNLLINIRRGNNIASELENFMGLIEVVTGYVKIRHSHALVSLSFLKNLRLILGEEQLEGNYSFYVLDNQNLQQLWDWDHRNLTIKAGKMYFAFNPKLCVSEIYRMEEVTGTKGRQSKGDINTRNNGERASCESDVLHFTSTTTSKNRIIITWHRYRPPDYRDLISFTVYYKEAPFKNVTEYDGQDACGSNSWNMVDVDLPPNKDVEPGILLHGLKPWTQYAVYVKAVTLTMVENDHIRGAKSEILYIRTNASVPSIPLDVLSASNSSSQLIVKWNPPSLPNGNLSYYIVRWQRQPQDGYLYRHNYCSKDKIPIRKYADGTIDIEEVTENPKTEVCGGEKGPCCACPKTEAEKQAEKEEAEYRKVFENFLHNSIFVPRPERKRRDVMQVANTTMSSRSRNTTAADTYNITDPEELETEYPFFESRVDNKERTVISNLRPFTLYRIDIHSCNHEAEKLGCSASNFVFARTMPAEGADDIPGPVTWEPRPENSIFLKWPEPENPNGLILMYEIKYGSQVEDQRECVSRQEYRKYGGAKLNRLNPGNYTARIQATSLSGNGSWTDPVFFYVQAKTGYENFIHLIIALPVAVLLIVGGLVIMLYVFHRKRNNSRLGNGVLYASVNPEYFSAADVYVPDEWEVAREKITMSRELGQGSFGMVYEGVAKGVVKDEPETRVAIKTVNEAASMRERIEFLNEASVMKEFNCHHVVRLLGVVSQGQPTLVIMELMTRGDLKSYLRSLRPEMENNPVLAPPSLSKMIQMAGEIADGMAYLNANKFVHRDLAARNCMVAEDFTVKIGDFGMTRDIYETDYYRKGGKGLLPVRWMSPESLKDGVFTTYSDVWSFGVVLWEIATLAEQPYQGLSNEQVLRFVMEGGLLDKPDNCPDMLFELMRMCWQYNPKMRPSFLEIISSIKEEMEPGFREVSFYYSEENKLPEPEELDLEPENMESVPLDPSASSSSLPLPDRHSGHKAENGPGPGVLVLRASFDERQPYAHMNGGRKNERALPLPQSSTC

Row | Molecule | IC50 [nM]
1 | Nc1ncnc2c1c(-c1cccc(OCC34CCC(CC3)O4)c1)cn2[C@H]1C[C@@H](N2CC[S+]([O-])CC2)C1 (relative stereo) [Example 232, 5-[3-(7-Oxa-bicyclo[2.2.1]hept-1-ylmethoxy)-phenyl]-7-[cis-3-(1-oxo-thiomorpholin-4-yl)-cyclobutyl]-7H-pyrrolo[2,3-d]pyrimidin-4-ylamine] | 35 to 38
2 | CC1(C)CCC(COc2cccc(-c3cn([C@H]4C[C@@H](CN5CCC(F)CC5)C4)c4ncnc(N)c34)c2)O1 (single isomer, unassigned) [Example 74, 5-[3-(5,5-dimethyl-tetrahydro-furan-2-ylmethoxy)-phenyl]-7-[cis-3-(4-fluoro-piperidin-1-ylmethyl)-cyclobutyl]-7H-pyrrolo[2,3-d]pyrimidin-4-ylamine] | 52
3 | CC1(C)CCC(COc2cccc(-c3cn([C@H]4C[C@@H](CN5CC(C(N)=O)C5)C4)c4ncnc(N)c34)c2)O1 (relative stereo) [Example 49, 1-(cis-3-{4-amino-5-[3-(5,5-dimethyl-tetrahydro-furan-2-ylmethoxy)-phenyl]-pyrrolo[2,3-d]pyrimidin-7-yl}-cyclobutylmethyl)-azetidine-3-carboxylic acid amide] | 192 to 241
4 | NC[C@H]1CC[C@@H](n2cc(-c3cccc(OCC45CCC(CC4)O5)c3)c3c(N)ncnc32)CC1 [Example 134, 5-(3-(7-oxabicyclo[2.2.1]heptan-1-ylmethoxy)phenyl)-7-((1S,4S)-4-(aminomethyl)cyclohexyl)-7H-pyrrolo[2,3-d]pyrimidin-4-amine] | 227
5 | CC1(C)CCC(COc2cccc(-c3cn([C@H]4C[C@H](CN5CCC[C@@H]5C(N)=O)C4)c4ncnc(N)c34)c2)O1 (stereo partly drawn) [Example 72, (R)-1-(trans-3-{4-amino-5-[3-(5,5-dimethyl-tetrahydro-furan-2-ylmethoxy)-phenyl]pyrrolo[2,3-d]pyrimidin-7-yl}-cyclobutylmethyl)-pyrrolidine-2-carboxylic acid amide] | 57
6 | NC(=O)[C@@H]1CCCN1C[C@H]1C[C@@H](n2cc(-c3cccc(OCC4CCCO4)c3)c3c(N)ncnc32)C1 (stereo partly drawn) [Example 76, (S)-1-(cis-3-{4-amino-5-[3-(tetrahydro-furan-2-ylmethoxy)-phenyl]-pyrrolo[2,3-d]pyrimidin-7-yl}-cyclobutylmethyl)-pyrrolidine-2-carboxylic acid amide] | 39
7 | Nc1nccn2c1c(-c1cccc(OCC34CCC(CC3)O4)c1)nc2[C@H]1C[C@@H](N2CCC(O)CC2)C1 [Example 187] | 128
8 | Nc1ncnc2c1c(-c1cccc(OCC3CCCCO3)c1)cn2C1CC(CN2CC[C@@H](F)C2)C1 (stereo partly drawn) [Example 27, 7-[3-((R)-3-fluoro-pyrrolidin-1-ylmethyl)-cyclobutyl]-5-[3-(tetrahydro-pyran-2-ylmethoxy)-phenyl]-7H-pyrrolo[2,3-d]pyrimidin-4-ylamine] | 345
9 | Nc1ncnc2c1c(-c1cccc(OCC34CCC(CC3)O4)c1)cn2[C@H]1CC[C@@H](CN2CCOCC2)CC1 [Example 130] | 45
10 | CC1(C)CCC(COc2cccc(-c3cn(C4CC(CN5CCC(O)C5)C4)c4ncnc(N)c34)c2)O1 [Example 57, (S)-1-(3-{4-amino-5-[3-(5,5-dimethyl-tetrahydro-furan-2-ylmethoxy)-phenyl]-5 pyrrolo[2,3-d]pyrimidin-7-yl}-cyclobutylmethyl)-pyrrolidin-3-ol] | 15
11 | COC(=O)NCC1CC(n2cc(-c3cccc(OCC45CCC(CC4)O5)c3)c3c(N)ncnc32)C1 (stereo not shown) [Example 161, (3-{4-amino-5-[3-(7-oxa-bicyclo[2.2.1]hept-1-ylmethoxy)-phenyl]-pyrrolo[2,3-d]pyrimidin-7-yl}-cyclobutylmethyl)-carbamic acid methyl ester] | 16
12 | CC1(C)CCC(COc2cccc(-c3cn(C4CC(CN5CC(F)C5)C4)c4ncnc(N)c34)c2)O1 (stereo not drawn) [Example 47, 5-[trans-3-(5,5-dimethyl-tetrahydro-furan-2-ylmethoxy)-phenyl]-7-[3-(3-fluoro-azetidin-1-ylmethyl)-cyclobutyl]-7H-pyrrolo[2,3-d]pyrimidin-4-ylamine] | 34
13 | Nc1ncnc2c1c(-c1cccc(OCC34CCC(CC3)O4)c1)cn2[C@H]1C[C@@H](CN2CCSCC2=O)C1 [Example 106, 4-(((1S,3S)-3-(5-(3-(7-oxabicyclo[2.2.1]heptan-1-ylmethoxy)phenyl)-4-amino-7H-pyrrolo[2,3-d]pyrimidin-7-yl}-cyclobutyl)methyl)thiomorpholin-3-one] | 61
14 | NC(=O)[C@H]1CCCN1C[C@H]1C[C@H](n2cc(-c3cccc(OCC45CCC(CC4)O5)c3)c3c(N)ncnc32)C1 [Example 79, (R)-1-(trans-3-{4-amino-5-[3-(7-oxa-bicyclo[2.2.1]hept-1-ylmethoxy)-phenyl]-pyrrolo[2,3-d]pyrimidin-7-yl}cyclobutylmethyl)-pyrrolidine-2-carboxylic acid amide] | 7
15 | Nc1ncnc2c1c(-c1cccc(OCC34CCC(CC3)O4)c1)cn2C1CCC(CN2CCC(O)C2)CC1 [Example 126, (S)-1-(((1S,4S)-4-(5-(3-(7-oxabicyclo[2.2.1]heptan-1-ylmethoxy)phenyl)-4-amino-7H-pyrrolo[2,3-d]pyrimidin-7-yl)cyclohexyl)methyl)pyrrolidin-3-ol] | 50
16 | 7-[cis-3-(4-methyltetrazoyl-1-ylmethyl)-cyclobutyl]-5-3-(7-oxa-bicyclo[2.2.1]hept-1-ylmethoxy)-phenyl]-7H-pyrrolo[2,3-d]pyrimidin-4-ylamine [Example 179] | 345
17 | NC(=O)[C@@H]1[C@@H]2C[C@@H]2CN1CC1CC(n2cc(-c3cccc(OCC4CCCCO4)c3)c3c(N)ncnc32)C1 (stereo partly drawn) [Example 102, (1R,2S,5S)-3-(((1S,3R)-3-(4-amino-5-(3-((tetrahydro-2H-pyran-2-yl)methoxy)phenyl)-7H-pyrrolo[2,3-d]pyrimidin-7-yl)cyclobutyl)methyl)-3-azabicyclo[3.1.0]hexane-2-carboxamide] | 43
18 | CN1CCN([C@H]2C[C@@H](n3cc(-c4cccc(OCC56CCC(CC5)O6)c4)c4c(N)ncnc43)C2)CC1=O (relative stereo) [Example 195, cis-4-(3-{4-Amino-5-[3-(7-oxa-bicyclo[2.2.1]hept-1-ylmethoxy)-phenyl]-pyrrolo[2,3-d]pyrimidin-7-yl}-cyclobutyl)-1-methyl-piperazin-2-one] | 385
19 | CC1(O)CC(n2cc(-c3cccc(OCC45CCC(CC4)O5)c3)c3c(N)ncnc32)C1 (stereo not shown) [Example 219, (E)-3-(4-amino-5-[3-(7-oxa-bicyclo[2.2.1]hept-1-ylmethoxy)-phenyl]-pyrrolo[2,3-d]pyrimidin-7-yl}-1-methyl-cyclobutanol] | 579
20 | Nc1ncnc2c1c(-c1cccc(OCC34CCC(CC3)O4)c1)cn2[C@H]1C[C@@]2(CNC(=O)O2)C1 [Example 169, (E)-2-{4-amino-5-[3-(7-oxa-bicyclo[2.2.1]hept-1-ylmethoxy)-phenyl]-pyrrolo[2,3-d]pyrimidin-7-yl}-5-oxa-7-aza-spiro[3.4]octan-6-one] | 66
21 | Nc1ncnc2c1c(-c1cccc(OCC34CCC(CC3)O4)c1)cn2C1CC(N2CCN(CCO)CC2)C1 (stereo not shown) [Example 170, 2-[4-(3-{4-amino-5-[3-(7-oxa-bicyclo[2.2.1]hept-1-ylmethoxy)-phenyl]-pyrrolo[2,3-d]pyrimidin-7-yl}-cyclobutyl)-piperazin-1-yl]-ethanol] | 44
22 | CN1CCN([C@H]2C[C@H](n3cc(-c4cccc(OCC56CCC(CC5)O6)c4)c4c(N)ncnc43)C2)CC1=O (relative stereo) [Example 196, 4-(trans-3-{4-Amino-5-[3-(7-oxa-bicyclo[2.2.1]hept-1-ylmethoxy)-phenyl]-pyrrolo[2,3-d]pyrimidin-7-yl}cyclobutyl)-1-methyl-piperazin-2-one] | 192
23 | Nc1ncnc2c1c(-c1cccc(OC[C@@H]3CCCO3)c1)cn2[C@H]1C[C@@H](CN2CCS(=O)(=O)CC2)C1 [Example 156, 7-[cis-3-(1,1-Dioxo-1-thiomorpholin-4-ylmethyl)-cyclobutyl]-5-{3-[(S)-1-(tetrahydro-furan-2-yl)methoxy]-phenyl}-7H-pyrrolo[2,3-d]pyrimidin-4-ylamine] | 166
24 | CC1(C)CCC(COc2cccc(-c3cn([C@H]4C[C@@H](CN5CCC(F)(F)CC5)C4)c4ncnc(N)c34)c2)O1 (single isomer, unassigned) [Example 55] | 22 to 38
25 | Nc1ncnc2c1c(-c1cccc(OCC34CCC(CC3)O4)c1)cn2C1CC(CN2CC(O)C2)C1 (stereo not shown) [Example 26, 1-(3-{4-amino-5-[3-(7-oxa-bicyclo[2.2.1]hept-1-ylmethoxy)-phenyl]-pyrrolo[2,3-d]pyrimidin-7-yl}-cyclobutylmethyl)azetidin-3-ol] | 38
26 | CC1(C)CCC(COc2cccc(-c3cn(C4CC(CN5CCS(=O)(=O)CC5)C4)c4ncnc(N)c34)c2)O1 (stereo not shown) [Example 14, 5-[3-(5,5-dimethyl-tetrahydro-furan-2-ylmethoxy)phenyl]-7-[3-(1,1-dioxothiomorpholin-4-ylmethyl)-cyclobutyl]-7H-pyrrolo[2,3-d]pyrimidin-4-ylamine] | 17
27 | CN1CCN([C@H]2CC[C@H](n3cc(-c4cccc(OCC5CCC(C)(C)O5)c4)c4c(N)ncnc43)CC2)CC1 (relative stereo) [Example 62, 5-[3-(5,5-dimethyl-tetrahydro-furan-2-ylmethoxy)-phenyl]-7-[trans-4-(4-methyl-piperazin-1-yl)-cyclohexyl]-7H-pyrrolo[2,3-d]pyrimidin-4-ylamine] | 314
28 | CN1CCN([C@H]2CC[C@@H](n3cc(-c4cccc(OC[C@@H]5CCC(C)(C)O5)c4)c4c(N)ncnc43)CC2)CC1 [Example 119, 5-(3-(((S)-5,5-dimethyltetrahydrofuran-2-yl)methoxy)phenyl)-7-((1S,4S)-4-(4-methylpiperazin-1-yl)cyclohexyl)-7H-pyrrolo[2,3-d]pyrimidin-4-amine] | 36

From patent publication US20120165310A1, “ETHER DERIVATIVES OF BICYCLIC HETEROARYLS” (NOVARTIS AG, priority 2009, published 2012)
